# Data from ChEMBL document CHEMBL1201862, “PubChem BioAssay data set” (2004).
# The source made the active and inactive calls.
# What was measured:
# [1] = M. tuberculosis H37Rv growth inhibitors, H37Rv strain (AID 1626); assay type: functional
# cells [2] = test: cells
# Major prion protein = Major prion protein (Homo sapiens, UniProt P04156); assay type: functional, cell-based
# cells [3] = assay type: functional, cell-based
# [4] = molecular target: T1, Trace amine-associated receptor 1 (Homo sapiens, UniProt Q96RJ0); test: Fluorescence-based cell-based high throughput dose response assay to identify agonists of the human trace amine associated receptor 1 (TAAR1).; assay type: functional
# T1 sequence (Q96RJ0 whole entry): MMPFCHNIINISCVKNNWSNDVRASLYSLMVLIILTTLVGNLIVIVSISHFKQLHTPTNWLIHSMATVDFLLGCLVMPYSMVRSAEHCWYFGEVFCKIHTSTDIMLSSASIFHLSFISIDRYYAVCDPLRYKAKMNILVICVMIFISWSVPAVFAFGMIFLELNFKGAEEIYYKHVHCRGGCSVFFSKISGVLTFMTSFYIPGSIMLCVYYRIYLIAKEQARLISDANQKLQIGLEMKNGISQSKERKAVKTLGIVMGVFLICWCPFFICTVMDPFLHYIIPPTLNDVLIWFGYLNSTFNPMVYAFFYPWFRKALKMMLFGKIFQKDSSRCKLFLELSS
# [5] = molecular target: Voltage-dependent T-type calcium channel subunit alpha-1H (Homo sapiens, UniProt O95180); assay type: functional;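 note: channel activity triggered by adding a high calcium stimulation buffer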
# Coagulation factor XII = molecular target: T2, Coagulation factor XII (Homo sapiens, UniProt P00748); assay type: functional;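 note: activated factor XIIa alpha cleaving a fluorogenic AMC peptide substrate; inhibitor potency from loss of enzyme activity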
# T2 sequence (P00748 whole entry): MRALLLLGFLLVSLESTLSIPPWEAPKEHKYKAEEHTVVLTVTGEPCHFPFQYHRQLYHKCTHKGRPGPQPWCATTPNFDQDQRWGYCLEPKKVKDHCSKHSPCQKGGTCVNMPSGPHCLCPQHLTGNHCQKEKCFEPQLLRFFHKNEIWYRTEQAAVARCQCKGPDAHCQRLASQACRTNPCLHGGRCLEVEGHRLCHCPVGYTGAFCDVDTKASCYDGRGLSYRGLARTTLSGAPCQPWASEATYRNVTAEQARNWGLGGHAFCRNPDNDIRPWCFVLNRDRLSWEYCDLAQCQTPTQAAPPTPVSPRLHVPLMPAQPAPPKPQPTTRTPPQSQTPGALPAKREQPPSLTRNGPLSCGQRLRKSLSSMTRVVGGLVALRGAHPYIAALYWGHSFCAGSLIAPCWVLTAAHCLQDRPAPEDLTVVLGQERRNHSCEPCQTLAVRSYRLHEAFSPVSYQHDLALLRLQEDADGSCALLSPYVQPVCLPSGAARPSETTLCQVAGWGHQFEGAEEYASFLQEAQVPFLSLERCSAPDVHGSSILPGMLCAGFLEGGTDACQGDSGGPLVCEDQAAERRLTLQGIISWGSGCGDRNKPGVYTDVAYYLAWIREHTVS
# cells [6] = assay type: functional, cell-based; remark: listed apart in the source
# [7] = molecular target: T1, Trace amine-associated receptor 1; test: Counterscreen for agonists of the human trace amine associated receptor 1 (hTAAR1): Fluorescence-based cell-based high throughput dose response assay to identify hTAAR1 agonist that also desensitize TAAR1 receptor response.; assay type: functional
# Protein RecA = molecular target: T3, Protein RecA (Mycobacterium tuberculosis, UniProt P9WHJ3); test: Fluorescence Cell-Free Homogeneous Dose Retest to Identify Inhibitors of RecA-Intein Splicing Activity. [Related pubchem assays (depositor defined):AID2097, AID2223, AID489010, AID492950]; assay type: functional
# T3 sequence (P9WHJ3 whole entry): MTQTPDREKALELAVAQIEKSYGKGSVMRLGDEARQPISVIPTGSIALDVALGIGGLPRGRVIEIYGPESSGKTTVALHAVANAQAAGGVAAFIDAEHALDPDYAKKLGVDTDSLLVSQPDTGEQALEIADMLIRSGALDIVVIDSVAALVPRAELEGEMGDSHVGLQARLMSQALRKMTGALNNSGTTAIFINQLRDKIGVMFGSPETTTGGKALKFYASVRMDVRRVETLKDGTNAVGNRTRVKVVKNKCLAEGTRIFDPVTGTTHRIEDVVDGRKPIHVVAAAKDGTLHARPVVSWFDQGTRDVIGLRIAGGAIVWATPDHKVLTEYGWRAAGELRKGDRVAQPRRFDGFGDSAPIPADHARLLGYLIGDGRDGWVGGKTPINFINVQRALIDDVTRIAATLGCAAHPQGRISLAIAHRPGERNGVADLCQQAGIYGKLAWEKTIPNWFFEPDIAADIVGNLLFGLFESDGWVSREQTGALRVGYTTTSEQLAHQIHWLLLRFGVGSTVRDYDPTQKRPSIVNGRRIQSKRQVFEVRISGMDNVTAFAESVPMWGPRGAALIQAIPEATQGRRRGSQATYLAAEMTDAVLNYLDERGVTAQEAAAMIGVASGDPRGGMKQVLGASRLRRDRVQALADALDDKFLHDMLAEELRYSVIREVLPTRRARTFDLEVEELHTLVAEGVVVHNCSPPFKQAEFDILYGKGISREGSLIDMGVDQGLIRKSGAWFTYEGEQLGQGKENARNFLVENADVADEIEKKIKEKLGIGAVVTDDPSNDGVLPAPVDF
# [8] = NIH3T3 cell viability loss – ATP luminescence, mouse fibroblasts, counter-screen, dose response (AID 2010); assay type: functional, cell-based;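 note: cells exposed to compound for about 90 hours before reading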
# [9] = Trypanosoma cruzi growth suppression in host cells – NIH3T3 host cells, beta-gal luminescence, confirmation (AID 2044); assay type: functional, cell-based;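 note: intracellular parasites grown in NIH/3T3 mouse fibroblasts as host cells; luminescent beta-galactosidase reporter signal from transgenic T. cruzi replicating inside host cells; inhibitors lower the luminescence signal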
# [10] = molecular target: T4, Mannose-6-phosphate isomerase (Homo sapiens, UniProt P34949); test: MPI inhibition at elevated mannose 6-phosphate – biochemical, fluorescence intensity, high mannose 6-phosphate, primary screen (AID 1220)
# T4 sequence (P34949 whole entry): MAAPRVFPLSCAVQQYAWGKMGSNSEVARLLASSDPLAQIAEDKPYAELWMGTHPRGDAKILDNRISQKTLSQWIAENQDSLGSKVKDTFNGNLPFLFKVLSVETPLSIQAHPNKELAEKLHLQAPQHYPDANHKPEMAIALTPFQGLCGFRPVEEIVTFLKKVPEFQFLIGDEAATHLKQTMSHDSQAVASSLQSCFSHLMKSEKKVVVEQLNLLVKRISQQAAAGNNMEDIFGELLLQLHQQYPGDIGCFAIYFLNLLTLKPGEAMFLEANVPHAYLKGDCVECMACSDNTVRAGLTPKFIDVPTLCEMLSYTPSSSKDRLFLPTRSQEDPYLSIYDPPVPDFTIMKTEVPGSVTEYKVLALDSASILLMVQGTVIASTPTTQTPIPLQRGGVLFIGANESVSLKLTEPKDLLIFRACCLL
# [11] = Luminescence-based cell-based high throughput dose response assay to identify activators of the DAF-12 from the parasite S. stercoralis (ssDAF-12).; assay type: functional
# [12] = molecular target: T5, Oxysterols receptor LXR-beta (Homo sapiens, UniProt P55055); test: LXR agonists, Gal4 luciferase reporter, dose response, counter-screen for ssDAF-12 agonist project, cell-based, luminescence, HEK293, S. stercoralis campaign (AID 720737); assay type: functional; conditions: read-out: IC50 (the source's name)
# T5 sequence (P55055 whole entry): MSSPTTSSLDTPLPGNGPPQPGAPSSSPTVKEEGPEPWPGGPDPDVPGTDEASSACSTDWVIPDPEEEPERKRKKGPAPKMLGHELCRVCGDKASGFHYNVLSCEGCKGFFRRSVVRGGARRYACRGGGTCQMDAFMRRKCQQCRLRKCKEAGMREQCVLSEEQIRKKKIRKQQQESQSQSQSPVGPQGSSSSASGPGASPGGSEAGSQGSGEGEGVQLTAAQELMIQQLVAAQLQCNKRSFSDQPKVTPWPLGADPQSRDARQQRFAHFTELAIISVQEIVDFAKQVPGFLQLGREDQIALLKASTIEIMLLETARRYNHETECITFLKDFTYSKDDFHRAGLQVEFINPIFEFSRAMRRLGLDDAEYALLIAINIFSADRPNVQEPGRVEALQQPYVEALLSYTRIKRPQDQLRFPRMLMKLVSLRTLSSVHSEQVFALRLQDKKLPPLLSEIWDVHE
# Genome polyprotein = Genome polyprotein (dengue virus type 2, UniProt P29990); test: flavivirus cap methylation enzyme inhibition – biochemical, confirmation dose response, primary screen (AID 588689); assay type: functional
# Caspase-6 = molecular target: T6, Caspase-6 (Homo sapiens, UniProt P55212); test: inhibition of CASP6 peptide cleavage – biochemical, VEID-R110 fluorescence, cherry-pick, dose response (AID 720632)
# T6 sequence (P55212 whole entry): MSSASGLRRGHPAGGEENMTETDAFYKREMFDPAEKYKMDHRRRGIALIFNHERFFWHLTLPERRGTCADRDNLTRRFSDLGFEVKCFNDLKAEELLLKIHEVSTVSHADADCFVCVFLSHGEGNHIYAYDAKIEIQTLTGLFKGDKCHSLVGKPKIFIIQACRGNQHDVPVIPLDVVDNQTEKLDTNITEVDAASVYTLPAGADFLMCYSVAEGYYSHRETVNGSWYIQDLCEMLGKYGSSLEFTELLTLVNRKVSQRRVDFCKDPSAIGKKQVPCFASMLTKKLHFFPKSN
# [13] = OVCAR8 cell viability loss – plate reader, dry powder samples, PAX8 project, dose response (AID 743197); assay type: functional, cell-based; conditions: OVCAR-8
# [14] = reduced cellular PGC1a acetyl-lysine signal – cell-based, cherry-picked samples, dose response (AID 720514); assay type: functional;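 note: potency may reflect raised or lowered acetylation signal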
# [15] = OVCAR-3 cell viability loss – plate reader, dry powder samples, PAX8 inhibitor project, dose response (AID 743044); assay type: functional, cell-based
# Paired box protein Pax-8 = Paired box protein Pax-8 (Homo sapiens, UniProt Q06710); test: PAX8 transcriptional activity inhibition in RMG-I – RMG-I cells, luciferase, cherry-pick, dose response (AID 687027); assay type: functional, cell-based;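 note: luciferase reporter driven by Pax8 target thyroperoxidase promoter measured by SteadyGlo luminescence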
# [16] = viability loss in HEK293 cells – cell-based, plate reader, cherry-picked samples, cytotoxicity control, dose response (AID 743446); assay type: functional
# [17] = IGROV1 cell killing – plate reader, dry powder samples, PAX8 inhibitor project, dose response (AID 743043); assay type: functional, cell-based; conditions: IGROV-1
# [18] = toxicity toward HepG2 liver cells – cell-based, plate reader, cherry-pick, antagonist series, cytotoxicity control, dose response (AID 743416); assay type: functional
# [19] = general cell-killing toxicity readout – plate reader, dry powder samples, cytotoxicity control for PAX8 inhibitor project, dose response (AID 743021); assay type: functional, cell-based
# [20] = blockade of melanocortin 4 receptor signaling – cell-based, plate reader, cherry pick, counter-screen for LGR2 antagonist project, dose response (AID 743444); assay type: functional;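 note: transfected HEK 293 cells stimulated with alpha-MSH peptide; potency of inhibitors of the alpha-MSH evoked signal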
# [21] = A549 cell cytotoxicity, dose response, cytotoxicity control, plate reader, cherry-pick, antagonist series (AID 743412); assay type: functional, cell-based
# Chain of Paired box protein Pax-8 (Q06710 whole entry): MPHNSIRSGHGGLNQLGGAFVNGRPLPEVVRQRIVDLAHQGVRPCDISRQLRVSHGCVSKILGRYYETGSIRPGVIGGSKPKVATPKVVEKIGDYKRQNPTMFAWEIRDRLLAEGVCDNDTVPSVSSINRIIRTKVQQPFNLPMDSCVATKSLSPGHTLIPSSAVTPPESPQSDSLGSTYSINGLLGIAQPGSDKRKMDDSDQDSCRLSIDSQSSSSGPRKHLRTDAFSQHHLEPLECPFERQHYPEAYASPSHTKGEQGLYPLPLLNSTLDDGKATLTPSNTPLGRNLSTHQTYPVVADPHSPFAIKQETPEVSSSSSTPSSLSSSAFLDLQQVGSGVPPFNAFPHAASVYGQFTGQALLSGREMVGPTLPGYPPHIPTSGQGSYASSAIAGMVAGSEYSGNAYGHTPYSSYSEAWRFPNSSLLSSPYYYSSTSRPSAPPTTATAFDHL
# Chain of Voltage-dependent T-type calcium channel subunit alpha-1H (O95180 whole entry): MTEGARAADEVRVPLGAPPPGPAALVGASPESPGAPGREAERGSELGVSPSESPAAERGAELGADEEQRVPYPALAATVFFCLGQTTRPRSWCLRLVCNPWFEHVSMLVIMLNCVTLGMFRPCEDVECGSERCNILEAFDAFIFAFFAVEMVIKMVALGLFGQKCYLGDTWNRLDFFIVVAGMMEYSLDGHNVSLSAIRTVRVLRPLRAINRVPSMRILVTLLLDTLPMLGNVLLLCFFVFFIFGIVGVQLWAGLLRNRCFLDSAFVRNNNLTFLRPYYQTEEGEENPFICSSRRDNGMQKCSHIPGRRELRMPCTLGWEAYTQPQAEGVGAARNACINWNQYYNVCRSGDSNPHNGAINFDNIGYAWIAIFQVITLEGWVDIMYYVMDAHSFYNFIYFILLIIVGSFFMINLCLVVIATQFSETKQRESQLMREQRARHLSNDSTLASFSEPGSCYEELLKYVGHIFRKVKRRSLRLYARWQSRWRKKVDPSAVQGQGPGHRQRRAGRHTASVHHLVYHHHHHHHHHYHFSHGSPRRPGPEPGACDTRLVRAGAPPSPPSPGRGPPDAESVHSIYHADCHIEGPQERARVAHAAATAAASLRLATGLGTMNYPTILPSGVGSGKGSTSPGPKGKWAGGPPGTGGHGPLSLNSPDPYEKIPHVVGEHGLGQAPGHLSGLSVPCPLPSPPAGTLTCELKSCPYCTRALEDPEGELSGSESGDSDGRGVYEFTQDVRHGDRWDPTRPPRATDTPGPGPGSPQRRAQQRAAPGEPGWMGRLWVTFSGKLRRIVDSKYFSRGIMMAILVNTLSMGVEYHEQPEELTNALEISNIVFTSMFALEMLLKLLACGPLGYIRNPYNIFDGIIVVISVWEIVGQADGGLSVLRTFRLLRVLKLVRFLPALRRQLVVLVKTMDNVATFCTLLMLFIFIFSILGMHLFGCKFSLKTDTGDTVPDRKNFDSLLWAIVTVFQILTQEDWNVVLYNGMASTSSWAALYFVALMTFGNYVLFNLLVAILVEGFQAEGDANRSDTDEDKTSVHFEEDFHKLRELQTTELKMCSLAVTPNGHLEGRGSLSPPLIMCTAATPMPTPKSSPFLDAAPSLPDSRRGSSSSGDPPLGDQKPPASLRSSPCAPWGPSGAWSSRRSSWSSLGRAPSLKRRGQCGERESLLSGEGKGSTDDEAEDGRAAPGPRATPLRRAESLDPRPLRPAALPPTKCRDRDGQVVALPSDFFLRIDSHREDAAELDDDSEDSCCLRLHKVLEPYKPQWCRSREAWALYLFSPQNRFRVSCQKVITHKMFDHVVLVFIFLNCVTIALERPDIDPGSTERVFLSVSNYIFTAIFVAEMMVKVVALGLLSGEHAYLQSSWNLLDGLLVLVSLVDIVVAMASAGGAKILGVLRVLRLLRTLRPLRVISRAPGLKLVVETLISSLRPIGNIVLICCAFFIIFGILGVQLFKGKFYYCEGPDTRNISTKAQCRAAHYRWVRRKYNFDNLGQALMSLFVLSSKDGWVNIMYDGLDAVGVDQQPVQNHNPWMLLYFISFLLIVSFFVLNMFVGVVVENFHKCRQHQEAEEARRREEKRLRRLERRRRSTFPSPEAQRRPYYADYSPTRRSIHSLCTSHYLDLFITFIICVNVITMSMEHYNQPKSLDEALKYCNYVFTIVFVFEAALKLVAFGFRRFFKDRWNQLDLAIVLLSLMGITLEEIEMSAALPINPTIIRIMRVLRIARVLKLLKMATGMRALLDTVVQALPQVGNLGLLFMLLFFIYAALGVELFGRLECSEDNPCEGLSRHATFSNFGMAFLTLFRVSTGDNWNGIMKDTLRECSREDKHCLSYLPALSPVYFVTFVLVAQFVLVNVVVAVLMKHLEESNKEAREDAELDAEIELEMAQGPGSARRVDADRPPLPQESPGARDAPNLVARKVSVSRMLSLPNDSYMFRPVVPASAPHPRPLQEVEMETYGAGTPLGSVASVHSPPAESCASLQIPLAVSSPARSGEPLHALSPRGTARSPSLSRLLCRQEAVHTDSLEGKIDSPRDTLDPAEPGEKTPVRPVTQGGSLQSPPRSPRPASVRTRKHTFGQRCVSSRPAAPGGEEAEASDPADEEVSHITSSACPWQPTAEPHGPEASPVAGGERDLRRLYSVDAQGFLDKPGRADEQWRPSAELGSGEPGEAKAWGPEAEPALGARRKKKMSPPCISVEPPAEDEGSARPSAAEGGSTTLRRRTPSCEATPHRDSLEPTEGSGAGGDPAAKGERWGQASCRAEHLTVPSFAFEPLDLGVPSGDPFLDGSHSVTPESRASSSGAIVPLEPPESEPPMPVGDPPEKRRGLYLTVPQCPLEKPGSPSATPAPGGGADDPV
# Chain of Genome polyprotein (P29990 2492-3391 limits assumed): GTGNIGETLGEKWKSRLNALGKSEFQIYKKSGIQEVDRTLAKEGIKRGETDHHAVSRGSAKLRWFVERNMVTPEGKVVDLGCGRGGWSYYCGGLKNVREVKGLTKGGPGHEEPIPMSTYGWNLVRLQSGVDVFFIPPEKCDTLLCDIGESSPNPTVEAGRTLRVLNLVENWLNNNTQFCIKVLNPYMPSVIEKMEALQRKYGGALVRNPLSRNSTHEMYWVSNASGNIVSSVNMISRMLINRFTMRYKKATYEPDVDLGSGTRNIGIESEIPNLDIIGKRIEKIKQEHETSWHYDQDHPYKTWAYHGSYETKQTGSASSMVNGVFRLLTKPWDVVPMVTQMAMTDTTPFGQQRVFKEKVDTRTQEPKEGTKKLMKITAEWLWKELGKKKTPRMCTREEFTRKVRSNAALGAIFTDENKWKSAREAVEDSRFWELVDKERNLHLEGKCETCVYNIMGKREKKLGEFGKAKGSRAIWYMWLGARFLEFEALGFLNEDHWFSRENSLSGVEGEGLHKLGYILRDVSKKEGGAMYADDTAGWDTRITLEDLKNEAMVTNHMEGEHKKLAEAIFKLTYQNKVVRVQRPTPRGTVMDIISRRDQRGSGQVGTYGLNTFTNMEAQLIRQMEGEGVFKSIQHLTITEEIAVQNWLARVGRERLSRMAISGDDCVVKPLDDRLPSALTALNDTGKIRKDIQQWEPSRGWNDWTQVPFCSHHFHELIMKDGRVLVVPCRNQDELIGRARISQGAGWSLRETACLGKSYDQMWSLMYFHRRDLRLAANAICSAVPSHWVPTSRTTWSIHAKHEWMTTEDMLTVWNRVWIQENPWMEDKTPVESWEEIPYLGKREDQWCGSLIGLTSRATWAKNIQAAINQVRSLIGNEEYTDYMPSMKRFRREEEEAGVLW
smiles,measurement,setting,value
Cc1ccc(NC(=O)COC(=O)CC2CCCC2)cc1Cl,IC50,[1],> 100 µM (active)
Cc1cc(SCCC(=O)O)nc2c(C)cccc12,IC50,cells [2],> 138 µM (inactive)
same,IC50,Major prion protein,4.67 µM (active)
Cc1ccc(-c2nc(CS(=O)(=O)CC(=O)N3CCc4ccccc4C3)c(C)o2)cc1,EC50,cells [3],> 29.9 µM (inactive)
same,EC50,[4],2.23 µM (active)
same,EC50,[5],2.21 µM (active)
same,IC50,Coagulation factor XII,> 50 µM (inactive)
same,IC50,cells [6],> 29.9 µM (inactive)
same,IC50,[7],5.4 µM (active)
CCCCn1c(N)c(C(=O)NCc2cccs2)c2nc3ccccc3nc21,EC50,Protein RecA,47.4 µM (inconclusive)
same,EC50,[8],> 60 µM (not active)
same,EC50,[9],2.83 µM (active)
same,IC50,[10],> 50 µM (not active)
Cc1ccc(Cc2cnc(NC(=O)C3CCCO3)s2)cc1 (stereo not given),IC50,[1],> 100 µM (active)
CC(=O)Nc1cccc(OCc2ccc(F)cc2)c1,IC50,[1],> 100 µM (active)
Cc1ccc(NC(=O)Nc2cccc(C(F)(F)F)c2)nc1,IC50,[11],> 67.6 µM (inactive)
same,EC50,[12],> 67.6 µM (inactive)
COC(=O)c1c(C)oc2c1cc(NS(=O)(=O)c1ccc(C(=O)O)cc1)c1ccccc12,IC50,Genome polyprotein,69 µM (active)
same,AC50,Caspase-6,22.6 µM (active)
Cc1ccc(NC(=O)c2ccccn2)c(Br)c1,IC50,[11],> 67.5 µM (inactive)
same,EC50,[12],> 67.5 µM (inactive)
CN(CC(=O)Nc1cccc(F)c1)C(=O)c1cccc(S(=O)(=O)N2CCN(Cc3ccccc3)CC2)c1,IC50,[11],> 67.5 µM (inactive)
same,EC50,[12],> 67.5 µM (inactive)
Cc1ccc(S(=O)(=O)N(C)C[C@H]2Oc3cc(C#Cc4ccncc4)ccc3S(=O)(=O)N([C@H](C)CO)C[C@H]2C)cc1,AC50,[13],17.4 µM (active)
same,AC50,[14],4.27 µM (active)
same,AC50,[15],9.03 µM (active)
same,AC50,Paired box protein Pax-8,4.03 µM (active)
C[C@@H]1CCCCO[C@H](CN(C)CC2CCCCC2)[C@H](C)CN([C@H](C)CO)C(=O)c2cc(NS(=O)(=O)c3ccccc3)ccc2O1,AC50,[13],> 70 µM (inactive)
same,AC50,[16],30.8 µM (active)
same,AC50,[17],57.1 µM (active)
same,AC50,[18],27.6 µM (active)
same,AC50,[19],39.7 µM (active)
same,AC50,[20],42.6 µM (active)
same,AC50,[15],55 µM (active)
same,AC50,[21],17.1 µM (active)
same,AC50,Paired box protein Pax-8,20.1 µM (active)
COc1ccc(-c2ccc([C@@H]3[C@@H]4CN(C(=O)Nc5cccc(F)c5)C[C@H]3N4)cc2)cc1,AC50,[13],58.5 µM (active)
same,AC50,[17],28.4 µM (active)
same,AC50,[19],41 µM (active)
same,AC50,[15],18.9 µM (active)
same,AC50,Paired box protein Pax-8,5.09 µM (active)
COC(=O)C1=C(C)N(Cc2cccc(C(F)(F)F)c2)C(NCc2ccc(OC)cc2)=NC1c1cccc(F)c1 (stereo not given),AC50,[19],33.3 µM (active)
same,AC50,Paired box protein Pax-8,11.5 µM (active)
CC(C)C#Cc1ccc2c(c1)O[C@@H](CN(C)Cc1ccccc1)[C@@H](C)CN([C@@H](C)CO)S2(=O)=O,AC50,[14],16 µM (active)
COCc1ccc(CN2CCC(n3nccc3NC(=O)c3ccc4c(c3)OCO4)CC2)o1,AC50,[14],29.9 µM (active)
